Converted amounts (≈) assume the structure as drawn.
Assays:
Experiment in all cases: Antibacterial activity, MIC
Format in all cases: cell-based
[1] = system: Pseudomonas aeruginosa ATCC 25619; conditions: ATCC25619, ATCC 25619, agar two-fold dilution, 37° C., 20 hours, read-out: MIC
Outline: (§1)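 The compound is dispersed into Mueller-Hinton agar across a two-fold dilution series. Each strain is applied as 2 μl of a 10^7 CFU/ml suspension and grown 20 hours at 37 °C.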

[2] = system: Proteus vulgaris ATCC 6059; conditions: ATCC6059, ATCC 6059, agar two-fold dilution, 37° C., 20 hours, read-out: MIC
Outline: as §1

[3] = system: Shigella sonnei ATCC 11060; conditions: ATCC11060, ATCC 11060, agar two-fold dilution, 37° C., 20 hours, read-out: MIC
Outline: as §1

[4] = system: Providencia rettgeri ATCC 9250; conditions: ATCC9250, agar two-fold dilution, 37° C., 20 hours
Outline: as §1

[5] = system: Staphylococcus aureus ATCC 6538p; conditions: ATCC6538P, ATCC 6538p, agar two-fold dilution, 37° C., 20 hours, read-out: MIC
Outline: as §1

[6] = system: Salmonella typhimurium ATCC 14028; conditions: Salmonella enterica; ATCC 14028; agar two-fold dilution, 37° C., 20 hours; read-out: MIC
Outline: as §1

[7] = system: Enterobacter aerogenes ATCC 29751; conditions: Klebsiella aerogenes, ATCC29751; ATCC 29751; agar two-fold dilution, 37° C., 20 hours; read-out: MIC
Outline: as §1

[8] = system: Escherichia coli ATCC 10536; conditions: ATCC10536, agar two-fold dilution, 37° C., 20 hours
Outline: as §1

[9] = system: Klebsiella pneumoniae ATCC 10031; conditions: ATCC10031, ATCC 10031, agar two-fold dilution, 37° C., 20 hours, read-out: MIC
Outline: as §1

[10] = system: Micrococcus luteus ATCC 9341; conditions: ATCC9341, ATCC 9341, agar two-fold dilution, 37° C., 20 hours, read-out: MIC
Outline: as §1

[11] = system: Proteus mirabilis ATCC 25933; conditions: ATCC25933, ATCC 25933, agar two-fold dilution, 37° C., 20 hours, read-out: MIC
Outline: as §1

[12] = system: Citrobacter freundii ATCC 8090; conditions: ATCC8090, ATCC 8090, agar two-fold dilution, 37° C., 20 hours, read-out: MIC
Outline: as §1

[13] = system: Morganella morganii ATCC 8076h; conditions: ATCC8076H, agar two-fold dilution, 37° C., 20 hours
Outline: as §1

[14] = system: Enterobacter cloacae ATCC 27508; conditions: ATCC27508, ATCC 27508, agar two-fold dilution, 37° C., 20 hours, read-out: MIC
Outline: as §1

[15] = system: Shigella flexneri ATCC 11836; conditions: ATCC11836, agar two-fold dilution, 37° C., 20 hours
Outline: as §1

[16] = system: Serratia marcescens ATCC 27117; conditions: ATCC27117, ATCC 27117, agar two-fold dilution, 37° C., 20 hours, read-out: MIC
Outline: as §1

[17] = system: Staphylococcus aureus ATCC 10537; conditions: ATCC10537, ATCC 10537, agar two-fold dilution, 37° C., 20 hours, read-out: MIC
Outline: as §1

[18] = system: Acinetobacter calcoaceticus ATCC 15473; conditions: ATCC15473, ATCC 15473, agar two-fold dilution, 37° C., 20 hours, read-out: MIC
Outline: as §1

[19] = system: Pseudomonas aeruginosa ATCC 10145; conditions: ATCC10145, ATCC 10145, agar two-fold dilution, 37° C., 20 hours, read-out: MIC
Outline: as §1

[20] = system: Pseudomonas aeruginosa ATCC 27853; conditions: ATCC27853, ATCC 27853, agar two-fold dilution, 37° C., 20 hours, read-out: MIC
Outline: as §1

[21] = system: Staphylococcus epidermidis ATCC 12228; conditions: ATCC12228, ATCC 12228, agar two-fold dilution, 37° C., 20 hours, read-out: MIC
Outline: as §1

[22] = system: Streptococcus faecalis ATCC 29212; conditions: Enterococcus faecalis, ATCC29212; ATCC 29212; agar two-fold dilution, 37° C., 20 hours; read-out: MIC
Outline: as §1

[23] = system: Bacillus megaterium ATCC 9885; conditions: Priestia megaterium, ATCC9885; ATCC 9885; agar two-fold dilution, 37° C., 20 hours; read-out: MIC
Outline: as §1

[24] = system: Escherichia coli ATCC 25922; conditions: ATCC25922, agar two-fold dilution, 37° C., 20 hours
Outline: as §1

[25] = system: Bacillus cereus ATCC 11778; conditions: ATCC11778, ATCC 11778, agar two-fold dilution, 37° C., 20 hours, read-out: MIC
Outline: as §1

Compound | MIC [1] [µg/mL] | MIC [2] [µg/mL] | MIC [3] [µg/mL] | MIC [4] [µg/mL] | MIC [5] [µg/mL] | MIC [6] [µg/mL] | MIC [7] [µg/mL] | MIC [8] [µg/mL] | MIC [9] [µg/mL] | MIC [10] [µg/mL] | MIC [11] [µg/mL] | MIC [12] [µg/mL] | MIC [13] [µg/mL] | MIC [14] [µg/mL] | MIC [15] [µg/mL] | MIC [16] [µg/mL] | MIC [17] [µg/mL] | MIC [18] [µg/mL] | MIC [19] [µg/mL] | MIC [20] [µg/mL] | other results
COc1cccc(OC)c1-[n+]1c(N)cc(N)nc1SCC1=C(C(=O)[O-])N2C(=O)C(NC(=O)/C(=N\OC(C)(C)C(=O)O)c3csc(N)n3)C2SC1 (stereo not shown) [Compound I-43] | 4 (≈ 5.36 µM) | 0.5 (≈ 0.67 µM) | 0.5 (≈ 0.67 µM) | 0.031 (≈ 0.0416 µM) | 4 (≈ 5.36 µM) | 2 (≈ 2.68 µM) | 2 (≈ 2.68 µM) | 0.5 (≈ 0.67 µM) | 0.25 (≈ 0.335 µM) | 0.25 (≈ 0.335 µM) | 0.5 (≈ 0.67 µM) | 1 (≈ 1.34 µM) | 0.031 (≈ 0.0416 µM) | 0.25 (≈ 0.335 µM) | 0.25 (≈ 0.335 µM) | 2 (≈ 2.68 µM) | 2 (≈ 2.68 µM) | 32 (≈ 42.9 µM) | 8 (≈ 10.7 µM) | 4 (≈ 5.36 µM) | MIC [21]: 2 µg/mL (≈ 2.68 µM); MIC [22]: > 128 µg/mL; MIC [23]: 0.25 µg/mL (≈ 0.335 µM); MIC [24]: 0.5 µg/mL (≈ 0.67 µM); MIC [25]: 32 µg/mL (≈ 42.9 µM)
CC(C)(O/N=C(\C(=O)NC1C(=O)N2C(C(=O)[O-])=C(CSc3nc(N)cc(N)[n+]3C3CC3)CSC12)c1csc(N)n1)C(=O)O (stereo not shown) [Compound I-48] | 2 (≈ 3.08 µM) | 0.13 (≈ 0.2 µM) | 0.13 (≈ 0.2 µM) | ≤ 0.008 | 4 (≈ 6.16 µM) | 0.5 (≈ 0.77 µM) | 2 (≈ 3.08 µM) | 0.13 (≈ 0.2 µM) | 0.063 (≈ 0.097 µM) | 0.5 (≈ 0.77 µM) | 0.063 (≈ 0.097 µM) | 0.13 (≈ 0.2 µM) | ≤ 0.008 | 0.031 (≈ 0.0477 µM) | 0.063 (≈ 0.097 µM) | 0.25 (≈ 0.385 µM) | 4 (≈ 6.16 µM) | 4 (≈ 6.16 µM) | 4 (≈ 6.16 µM) | 2 (≈ 3.08 µM) | MIC [21]: 2 µg/mL (≈ 3.08 µM); MIC [22]: > 128 µg/mL; MIC [23]: 0.5 µg/mL (≈ 0.77 µM); MIC [24]: 0.13 µg/mL (≈ 0.2 µM); MIC [25]: 64 µg/mL (≈ 98.5 µM)
C=CCO/N=C(\C(=O)NC1C(=O)N2C(C(=O)[O-])=C(CSc3nc(N)cc(N)[n+]3C)CSC12)c1csc(N)n1 (stereo not shown) [Compound I-49] | 1 (≈ 1.73 µM) | 0.5 (≈ 0.866 µM) | 0.25 (≈ 0.433 µM) | ≤ 0.008 | 0.25 (≈ 0.433 µM) | 1 (≈ 1.73 µM) | 1 (≈ 1.73 µM) | 0.25 (≈ 0.433 µM) | 0.016 (≈ 0.0277 µM) | 0.031 (≈ 0.0537 µM) | 0.5 (≈ 0.866 µM) | 0.25 (≈ 0.433 µM) | ≤ 0.008 | 0.031 (≈ 0.0537 µM) | 0.063 (≈ 0.109 µM) | 0.5 (≈ 0.866 µM) | 0.25 (≈ 0.433 µM) | 8 (≈ 13.8 µM) | 16 (≈ 27.7 µM) | 8 (≈ 13.8 µM) | MIC [21]: 0.13 µg/mL (≈ 0.225 µM); MIC [22]: 16 µg/mL (≈ 27.7 µM); MIC [23]: 0.25 µg/mL (≈ 0.433 µM); MIC [24]: 0.25 µg/mL (≈ 0.433 µM); MIC [25]: 32 µg/mL (≈ 55.4 µM)
C=CCO/N=C(\C(=O)NC1C(=O)N2C(C(=O)[O-])=C(CSc3nc(N)cc(N)[n+]3CC)CSC12)c1csc(N)n1 (stereo not shown) [Compound I-50] | 1 (≈ 1.69 µM) | 0.25 (≈ 0.423 µM) | 0.13 (≈ 0.22 µM) | ≤ 0.008 | 0.13 (≈ 0.22 µM) | 0.5 (≈ 0.845 µM) | 0.5 (≈ 0.845 µM) | 0.13 (≈ 0.22 µM) | ≤ 0.008 | ≤ 0.008 | 0.25 (≈ 0.423 µM) | 0.13 (≈ 0.22 µM) | ≤ 0.008 | 0.016 (≈ 0.027 µM) | 0.031 (≈ 0.0524 µM) | 0.25 (≈ 0.423 µM) | 0.13 (≈ 0.22 µM) | 4 (≈ 6.76 µM) | 4 (≈ 6.76 µM) | 4 (≈ 6.76 µM) | MIC [21]: 0.063 µg/mL (≈ 0.106 µM); MIC [22]: 8 µg/mL (≈ 13.5 µM); MIC [23]: 0.13 µg/mL (≈ 0.22 µM); MIC [24]: 0.13 µg/mL (≈ 0.22 µM); MIC [25]: 8 µg/mL (≈ 13.5 µM)
